In PubChem BioAssay AID1963873 (Molecular Pharmacology Branch, DTP, NCI, 2024):

Tested on: 276233-004-R-J1-PDC KRAS spheroids with HUVEC/MSC, viability
Assay: Anticancer human tumor 276233-004-R-J1-PDC patient-derived colon adenocarcinoma cell line growth inhibition [KRAS2]
Settings: for viability, T/C: stronger effect = lower value; active = viability on the fitted dose curve at most 10% of control; inactive = the rest
Description: Multicellular complex tumor spheroid response to RAS pathway inhibitors in combination with a targeted agents in patient-derived cell lines with oncogenic KRAS variants from multiple cancer types
A high-throughput screen of multi-cell type tumor spheroids was designed to identify active combinations of targeted small molecules and KRAS pathway inhibitors. Complex spheroids include a stromal component modeled by human endothelial cells (HUVEC) and fibroblasts modeled by human mesenchymal stem cells (MSCs). The concentration ranges selected for each drug and investigational agent were based upon clinically achievable concentrations if the clinical Cmax of the agent was known.
Compounds. The drugs and investigational agents: BI-3406 (NSC825286), BAY-293 (NSC824723), batoprotafib (TNO155; NSC825523), sotorasib (AMG 510; NSC818433), MRTX1257 (NSC819558), elimusertib (BAY 1895344; NSC800525), molibresib (GSK525762; NSC774829), temuterkib (LY3214996; NSC803410), venetoclax (NSC766270), alisertib (NSC759677), olaparib (NSC753686), talazoparib (NSC767125), erdafitinib (NSC781556), ipatasertib (NSC767898), cabozantinib (NSC761068), nintedanib (NSC756659), abemaciclib (NSC768073), docetaxel (NSC628503), trametinib (NSC758246), and sapanisertib (NSC764658) were obtained from the National Cancer Institute (NCI) Developmental Therapeutics Program Chemical Repository. The FDA-approved anticancer drug set is available from the Developmental Therapeutics Program. […] The stock solutions were prepared in dimethyl sulfoxide (DMSO, Sigma-Aldrich, St. Louis, MO, cat. D2650) at 800-fold the tested concentration and stored at -70 degrees C prior to their use. All drugs and investigational agents were tested over a range starting from a high concentration at or near the clinical Cmax and decreasing in half-log increments. If the clinical Cmax for an agent had not been determined, the highest concentration tested was 10 microM.
Cell Culture. All cells were maintained in an incubator at 37 degrees C and 5% CO2 with 95% humidity. The PDC lines were cultured according to standard operating procedures established by the NCI PDMR (https://pdmr.cancer.gov/sops/default.htm). Briefly, all PDCs were thawed and cultured in Matrigel-coated flasks prepared with a working solution of 1X Ham's F-12 nutrient mix, without supplementation (Invitrogen, Waltham, MA, cat. 11765054), 100 U/mL penicillin-streptomycin (Invitrogen, cat. 15140122), and 2.5% Matrigel (Corning Inc., Corning, NY, cat. 354248) for the first three passages. All PDCs were cultured in complete DMEM/F-12 media containing advanced DMEM/F-12 (Invitrogen, cat. 12634028), 4.9% defined fetal bovine serum, heat inactivated (HyClone Laboratories Inc., Logan, UT, cat. SH30070.03HI), 389 ng/mL hydrocortisone (Sigma-Aldrich, cat. H4001), 9.7 ng/mL human EGF recombinant protein (Invitrogen, cat. PHG0313), 23.4 microg/mL adenine (Sigma-Aldrich, cat. A2786), 97.3 U/mL penicillin-streptomycin (Invitrogen, cat. 15140122), 1.9 mM L-glutamine (Invitrogen, cat. 25030081), and 9.7 microM Y-27632 dihydrochloride (Tocris Bioscience, Bristol, United Kingdom, cat. 1254). The PDCs were cultured in complete DMEM/F12 media without 9.7 microM Y-27632 dihydrochloride for at least two passages prior to the screen. The established cell line HOP-62 was cultured in RPMI 1640 medium, HEPES (Invitrogen, cat. 22400105) with 10% defined fetal bovine serum (HyClone Laboratories Inc., cat. SH30070.03) and 2 mM L-glutamine (Invitrogen, cat. 25030081). The pooled donor HUVEC were cultured in endothelial cell growth medium 2 (PromoCell, Heidelberg, Germany, cat. C-22011) and the hMSC were cultured in mesenchymal stem cell growth medium 2 (PromoCell, cat. C-28009). For all experiments, HUVEC and hMSC were used at passages </=5, while the malignant cell lines were used at passages </=15. […]
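Note: cells exposed to agents for seven days before viability read.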
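Throughout, for viability, T/C: 100% = DMSO vehicle control wells and lower values mean fewer viable cells.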

CC(C)NCC(C(=O)N1CCN(c2ncnc3c2C(C)CC3O)CC1)c1ccc(Cl)cc1 (stereo not given)
inactive: viability, T/C (compound 0.0316 µM) 91% [middle of 5 runs] | viability, T/C (compound 0.1 µM) 91.5% [middle of 5 runs] | viability, T/C (compound 0.316 µM) 79.8% [middle of 5 runs] | viability, T/C (compound 10 µM) 73.1% [middle of 5 runs]
> 10 µM: IC50 (curve of compound)

CC(C)NCC(C(=O)N1CCN(c2ncnc3c2C(C)CC3O)CC1)c1ccc(Cl)cc1 (stereo not given) + C=CC(=O)N1CCN(c2nc(OCC3CCCN3C)nc3c2CCN(c2cccc4cccc(C)c24)C3)CC1CC#N
< 0.0316 µM: IC50 (curve of first compound, second compound 3.16 µM)
> 10 µM: IC50 (curve of first compound, second compound 0.0316 µM) | IC50 (curve of first compound, second compound 0.1 µM) | IC50 (curve of first compound, second compound 0.316 µM) | IC50 (curve of first compound, second compound 1 µM)
inactive: viability, T/C (second compound 0.0316 µM, first compound 0.0316 µM) 97.3% | viability, T/C (second compound 0.0316 µM, first compound 0.1 µM) 93.5% | viability, T/C (second compound 0.0316 µM, first compound 0.316 µM) 84.8% | viability, T/C (second compound 0.0316 µM, first compound 1 µM) 63.7% | viability, T/C (second compound 0.0316 µM, first compound 3.16 µM) 66.3% | viability, T/C (second compound 0.0316 µM, first compound 10 µM) 64.9% | viability, T/C (second compound 0.1 µM, first compound 0.0316 µM) 80.6% | viability, T/C (second compound 0.1 µM, first compound 0.1 µM) 81.7% | viability, T/C (second compound 0.1 µM, first compound 0.316 µM) 67.6% | viability, T/C (second compound 0.1 µM, first compound 1 µM) 64.6% | viability, T/C (second compound 0.1 µM, first compound 3.16 µM) 85.4% | viability, T/C (second compound 0.1 µM, first compound 10 µM) 76.9% | viability, T/C (second compound 0.316 µM, first compound 0.0316 µM) 66.8% | viability, T/C (second compound 0.316 µM, first compound 0.1 µM) 81.4% | viability, T/C (second compound 0.316 µM, first compound 0.316 µM) 72.8% | viability, T/C (second compound 0.316 µM, first compound 1 µM) 65.5% | viability, T/C (second compound 0.316 µM, first compound 3.16 µM) 63.2% | viability, T/C (second compound 0.316 µM, first compound 10 µM) 58.7% | viability, T/C (second compound 1 µM, first compound 0.0316 µM) 60.4% | viability, T/C (second compound 1 µM, first compound 0.1 µM) 65.6% | viability, T/C (second compound 1 µM, first compound 0.316 µM) 65% | viability, T/C (second compound 1 µM, first compound 1 µM) 61.9% | viability, T/C (second compound 1 µM, first compound 3.16 µM) 64.8% | viability, T/C (second compound 1 µM, first compound 10 µM) 58.4% | viability, T/C (second compound 3.16 µM, first compound 0.0316 µM) 37.6% | viability, T/C (second compound 3.16 µM, first compound 0.1 µM) 46.9% | viability, T/C (second compound 3.16 µM, first compound 0.316 µM) 44% | viability, T/C (second compound 3.16 µM, first compound 1 µM) 22% | viability, T/C (second compound 3.16 µM, first compound 3.16 µM) 32% | viability, T/C (second compound 3.16 µM, first compound 10 µM) 27.3%
